Tests used:
[1] = [M+H]+; instrument: TW; Major Mix IMS/Tof Calibration Kit (Waters)
[2] = instrument: DT, single field, calibrated with Agilent tune mix (Agilent)
[3] = instrument: TW, calibrated with phosphatidylcholines (ESI+) and phosphatidylethanolamines (ESI-)
[4] = [M+H]+; instrument: DT; stepped-field

| SMILES | collision cross section (N2) ([2]; [M+H]+) | collision cross section (N2) ([2]; [M+Na]+) | collision cross section (N2) ([2]; [M-H]-) | collision cross section (N2) ([3]; [M+Na]+) | collision cross section (N2) ([3]; [M-H]-) | other results |
| --- | --- | --- | --- | --- | --- | --- |
| O=C1Nc2ccc(Br)cc2C(c2ccccn2)=NC1O (configuration not stated) [3-Hydroxybromazepam] | – | – | – | – | – | collision cross section (N2) [1]: 161 Å² |
| COc1ccc2cccc(CCNC(C)=O)c2c1 [Agomelatine] | – | – | – | – | – | collision cross section (N2) [1]: 156.3 Å² |
| CC(CN(C)C)CN1c2ccccc2Sc2ccccc21 (configuration not stated) [Alimemazine] | – | – | – | – | – | collision cross section (N2) [1]: 166.8 Å² |
| CN(C)CCc1c[nH]c2ccc(CS(=O)(=O)N3CCCC3)cc12 [Almotriptan] | – | – | – | – | – | collision cross section (N2) [1]: 175.8 Å² |
| CCCCCCCCCCCCCCCCCC(=O)O[C@H](CO)COP(=O)([O-])OCC[N+](C)(C)C [LPC(18:0)] | 237.9 Å² | 240.8 Å² | – | – | – | collision cross section (N2) ([2]; [M+HCOO]-): 241.4 Å²; collision cross section (N2) ([3]; [M+H]+): 235.7 Å²; collision cross section (N2) [4]: 240.7 Å² |
| CCCCC/C=C\C/C=C\CCCCCCCC(=O)O[C@H](CO/C=C\CCCCCCCCCCCCCC)COP(=O)(O)OCCN [PE(p34:2)] | 270 Å² | – | 261.1 Å² | – | – | collision cross section (N2) ([3]; [M+H]+): 271.8 Å² |
| CC/C=C\C/C=C\C/C=C\C/C=C\C/C=C\CCCC(=O)O[C@H](CO/C=C\CCCCCCCCCCCCCCCC)COP(=O)(O)OCCN [PE(p38:5)] | 280.2 Å² | – | 270.6 Å² | 279.4 Å² | 268.7 Å² | collision cross section (N2) ([3]; [M+H]+): 278.3 Å² |
| CCCCC/C=C\C/C=C\C/C=C\CCCCCCC(=O)O[C@H](CO/C=C\CCCCCCCCCCCCCCCCCC)COP(=O)(O)OCCN [PE(p40:3)] | – | – | 277.1 Å² | – | – | collision cross section (N2) ([3]; [M+H]+): 287.9 Å² |
| CCCC/C=C\CCCCCCCC(=O)OC[C@H](COP(=O)(O)OC[C@@H](O)CO)OC(=O)CCCCCCCCC/C=C\C/C=C\CCCCC [PG(34:3)] | – | – | 266.2 Å² | 275.1 Å² | – | – |
| CC/C=C\C/C=C\C/C=C\C/C=C\CCCCC(=O)OC[C@H](COP(=O)(O)OC[C@@H](O)CO)OC(=O)CCCCCCCCC/C=C\CCCCCCCC [PG(38:5)] | 292.1 Å² | 288.8 Å² | – | 285.9 Å² | 276.5 Å² | – |
| CCCCC/C=C\C/C=C\CCCCCCCCCCCC(=O)O[C@H](COC(=O)CCCCCCCCCCC)COP(=O)(O)O[C@H]1C(O)C(O)C(O)[C@@H](O)C1O (some centres not stated) [PI(34:2)] | 291.6 Å² | – | 282.4 Å² | – | 282.4 Å² | collision cross section (N2) ([2]; [M+NH4]+): 292.9 Å² |

The next lines start with results.

| collision cross section (N2) ([2]; [M+H]+) | collision cross section (N2) ([2]; [M+Na]+) | collision cross section (N2) ([2]; [M-H]-) | collision cross section (N2) ([3]; [M+Na]+) | collision cross section (N2) ([3]; [M-H]-) | SMILES | other results |
| --- | --- | --- | --- | --- | --- | --- |
| 289.3 Å² | 286 Å² | – | 284 Å² | 275.6 Å² | CC/C=C\C/C=C\C/C=C\C/C=C\C/C=C\C/C=C\CCC(=O)O[C@H](COC(=O)CCCCCCCCCCCCCCC)COP(=O)(O)OC[C@@H](O)CO [PG(38:6)] | collision cross section (N2) ([2]; [M+NH4]+): 290.2 Å² |
| – | 295.2 Å² | 283.4 Å² | 292.7 Å² | 283 Å² | CCCCC/C=C\C/C=C\C/C=C\C/C=C\CCCCCC(=O)OC[C@H](COP(=O)(O)OC[C@@H](O)CO)OC(=O)CCCCCCC/C=C\CCCCCCCC [PG(40:5)] | collision cross section (N2) ([2]; [M+NH4]+): 298.9 Å² |
| 294.9 Å² | 292.4 Å² | 283.7 Å² | – | 283.7 Å² | CCCCCCCCCC/C=C\CCCCCCCCCC(=O)O[C@H](COC(=O)CCCCCCCCCCC)COP(=O)(O)O[C@H]1C(O)C(O)C(O)[C@@H](O)C1O (some centres not stated) [PI(34:1)] | collision cross section (N2) ([2]; [M+NH4]+): 295.8 Å² |
| – | 307.1 Å² | 298.2 Å² | – | 297.1 Å² | CCCCC/C=C\C/C=C\CCCCCCCCCCCC(=O)O[C@H](COC(=O)CCCCCCC/C=C\C/C=C\CCCCC)COP(=O)(O)O[C@H]1C(O)C(O)C(O)[C@@H](O)C1O (some centres not stated) [PI(40:4)] | – |

Reference: the C3SDB collision cross section collection
